Values of other authors in paper PMC11261219 (Clinical and Molecular Hepatology, 2024).

Experiments:
[1] = tested on: HBV DNA and HBV RNA; conditions: added to patients taking NUCs, versus NUCs alone
[2] = tested on: HBV; conditions: after 3 years

Row | Compound | suppression of HBV DNA and HBV RNA [1] | functional cure, patients [2]
1 | O=C(NCc1cnc(C(F)(F)F)s1)c1ccc2c(c1)NC(=O)c1ccccc1S2(=O)=O [vebicorvir] | further suppressed HBV DNA and HBV RNA more than with NUCs alone | –
2 | pegylated interferon [pegIFN] | – | approximately 11%
